Columns and labels:
cytoplasmic Ca2+ = test: Calcium imaging of Ng-inoculated polarized epithelial cells (FluoForte, Fluo-4); assay type: cell-based, human; details: MS11Opa+ and MS11ΔOpa-inoculated polarized epithelial cells, 4 h; 2APB 10 μM, BAPTA 50 μM
From the text: Ng inoculation induces Ca^2+-dependent redistribution of active NMII in polarized epithelial cells. A major upstream signaling molecule of MLCK is calmodulin that is activated by Ca^2+. To investigate if Ca^2+ is involved in Ng induced redistribution of active NMII, we determined if Ng inoculation would induce Ca^2+ flux in polarized epithelial cells. We used two Ca^2+ indicators, FluoForte (FIGS. 7A and 7B) and Fluo-4 (FIG. 11) to determine the cytoplasmic Ca^2+ level. Polarized T84 (FIGS. 7A and 7B, and FIG. 11A and FIG. 11B) and HEC-1-B (FIG. 11C and FIG. 11D) were incubated apically with MS11Opa+ or MS11ΔOpa for 4 h. The cells were then loaded with the fluorescent Ca^2+ indicator, and the cell membrane marked by the membrane dye CellMask. Cells were imaged using 3D-CFM (FIG. 7A, and FIGS. 11A and 11C). The mean fluorescence intensity (MFI) of the Ca^2+ dyes in individual cells was measured to estimate the cytoplasmic level of Ca^2+ (FIG. 7B, and FIGS. 11B and 11D). […]
Calcium imaging. […] To quantify the intracellular Ca^2+ level, the cytoplasmic region of individual cells was manually selected based on the CellMask staining in randomly acquired confocal images, and the mean fluorescent intensity (MFI) of Fluoforte and Fluo-4 in the cytoplasmic region was measured using the NIH ImageJ software.

[1] = tested on: phosphorylated myosin light chain (pMLC); test: pMLC redistribution in Ng-inoculated human endocervical tissue explants; assay type: cell-based; details: MS11ΔOpa-inoculated endocervical tissue explants, 24 h
Procedure: To explore the possibility of that Ng induced NMII redistribution occurs in vivo, we incubated human endocervical tissue explants with MS11ΔOpa for 24 h. Cryo-sections of the endocervical tissue were stained for pMLC, Ng and nuclei. In addition to its apical junction localization, pMLC was concentrated at the basal surface of the endocervical epithelial cells contacting with the basal membrane (FIG. 6A, upper panels). When incubated with MS11ΔOpa, there was a redistribution of pMLC from the basal to apical surface, resulting in a significant higher apical:lateral FIR in Ng inoculated tissue explants than that in no Ng control (FIG. 6), similar to what we observed in polarized T84 (FIGS. 5A and 5B) and HEC-1-B cells (FIG. 10). Furthermore, pMLC at the apical surface of the endocervical epithelial cells also concentrated at Ng adherent sites (FIG. 6A, second row, white arrows), but not at the membrane of cells neighboring exfoliating cells (FIG. 6A, second row, orange arrows). These observations confirm that Ng increase the relative amount of activated NMII at the apical surface of the endocervical epithelial cells in human tissue explants. […]
Immunofluorescence analysis of human endocervical tissue explants. […] The tissue was fixed, embedded in gelatin, cryopreserved, sectioned crossing the apical and basolateral surfaces of the epithelium, stained for ZO1 (BD Bioscience), pMLC (Cell Signaling Technology, Beverly, Mass.), and Ng (51) by specific antibodies, and nuclei by DAPI (Life Technologies, Carlsbad, Calif.), and analyzed using CFM (Zeiss LSM 710, Carl Zeiss Microscopy LLC, Oberkochen, Germany). […]
To quantify epithelial exfoliation, the number of Ng associated cells localized on the top of the epithelial monolayer (exfoliated) and the total number of Ng associated epithelial cells was counted by visual inspection in each randomly acquired image, to determine the percentage of exfoliated cells. To estimate the level of Ng penetration into the subepithelium, the number of non-exfoliated epithelial cells (in clearly visible epithelial monolayers) with basal Ng staining and the total number of Ng associated epithelial cells were visually counted to calculate the percentage of infected epithelial cells with Ng penetration into the basolateral side. To evaluate the disruption of the apical junction, the number of Ng associated epithelial cells that lost continuously apical staining of the junctional protein ZO1 and the total number of Ng associated epithelial cells were visually counted to calculate the percentage of Ng associated epithelial cells with apical junction disassembly. […]

| Structure (SMILES) | MFI of the Ca2+ indicators (cytoplasmic Ca2+ level) (cytoplasmic Ca2+) | pMLC accumulation at Ng adherent sites [1] | apical:lateral FIR of pMLC ([1]; ML-7 10 μM, PIK 100 μM) |
| --- | --- | --- | --- |
| NCCOB(c1ccccc1)c1ccccc1 [2APB] | back to the basal level | – | – |
| O=S(=O)(c1cccc2c(I)cccc12)N1CCCNCC1 [ML-7] | – | significantly reduced | significantly reduced |
